From patent US20060089375A1, “Pyrazolo[3,4-b] pyridine compounds, and their use as phosphodiesterase inhibitors” (priority 2002, published 2006)

Legend:
[1] = molecular target: T1, PDE4B (human recombinant) (Homo sapiens, UniProt Q07343); assay: Inhibition of PDE4B activity: radioactive SPA or IMAP Fluorescence Polarisation (FP) assay; assay type: biochemical; conditions: PDE4B inhibitory activity, one reading or average of ca. 2-6 readings, read-out: PDE4B pIC50 (± about 0.5) (converted)
T1 construct: made in house
Source text: Human recombinant PDE4B, in particular the 2B splice variant thereof (HSPDE4B2B), is disclosed in WO 94/20079 and also M. M. McLaughlin et al., “A low Km, rolipram-sensitive, cAMP-specific phosphodiesterase from human brain: cloning and expression of cDNA, biochemical characterisation of recombinant protein, and tissue distribution of mRNA”, J. Biol. Chem., 1993, 268, 6470-6476. For example, in Example 1 of WO 94/20079, human recombinant PDE4B is described as being expressed in the PDE-deficient yeast Saccharomyces cerevisiae strain GL62, e.g. after induction by addition of 150 uM CuSO4, and 100,000×g supernatant fractions of yeast cell lysates are described for use in the harvesting of PDE4B enzyme.
The ability of compounds to inhibit catalytic activity at PDE4B or 4D (human recombinant), PDE3 (from bovine aorta), PDE5 (human recombinant) or PDE6 (from bovine retina) was determined by Scintillation Proximity Assay (SPA) in 96-well format. Test compounds (preferably as a solution in DMSO, e.g. 0.5 to 1 microlitre (ul) volume) were preincubated at ambient temperature (room temperature, e.g. 19-23° C.) in Wallac Isoplates (code 1450-514) with PDE enzyme in 50 mM Tris-HCl buffer pH 7.5, 8.3 mM MgCl2, 1.7 mM EGTA, 0.05% (w/v) bovine serum albumin for 10-30 minutes (usually 30 minutes). The enzyme concentration was adjusted so that no more than 20% hydrolysis of the substrate defined below occurred in control wells without compound, during the incubation. For the PDE3, PDE4B and PDE4D assays, [5′,8-^3H]Adenosine 3′,5′-cyclic phosphate (Amersham Pharmacia Biotech, code TRK.559; or Amersham Biosciences UK Ltd, Pollards Wood, Chalfont St Giles, Buckinghamshire HP8 4SP, UK) was added to give 0.05 uCi per well and ˜10 nM final concentration. For the PDE5 and PDE6 assays, [8-^3H]Guanosine 3′,5′-cyclic phosphate (Amersham Pharmacia Biotech, code TRK.392) was added to give 0.05 uCi per well and ˜36 nM final concentration. Plates, e.g. containing approx. 100 ul volume of assay mixture, were mixed on an orbital shaker for 5 minutes and incubated at ambient temperature for 1 hour. Phosphodiesterase SPA beads (Amersham Pharmacia Biotech, code RPNQ 0150) were added ([…] per well) to terminate the assay. Plates were sealed and shaken and allowed to stand at ambient temperature for 35 minutes to 1 hour (preferably 35 minutes) to allow the beads to settle. Bound radioactive product was measured using a WALLAC TRILUX 1450 Microbeta scintillation counter. For inhibition curves, 10 concentrations (1.5 nM-30 uM) of each compound were assayed. Curves were analysed using ActivityBase and XLfit (ID. Business Solutions Limited, 2 Ocean Court, Surrey Research Park, Guildford, Surrey GU2 7QB, United Kindgom) Results were expressed as pIC50 values.
The ability of compounds to inhibit catalytic activity at PDE4B (human recombinant) or PDE4D (human recombinant) was determined by IMAP Fluorescence Polarisation ([…]) assay (IMAP Explorer kit, available from Molecular Devices Corporation, Sunnydale, Calif., USA; Molecular Devices code: R^8062) in 384-well format. The IMAP FP assay is able to measure PDE activity in an homogenous, non-radioactive assay format. The FP assay uses the ability of immobilised trivalent metal cations, coated onto nanoparticles (tiny beads), to bind the phosphate group of Fl-AMP that is produced on the hydrolysis of fluorescein-labelled (Fl) cyclic adenosine mono-phosphate (Fl-cAMP) to the non-cyclic Fl-AMP form. […] Binding of Fl-AMP product to the beads (coated with the immobilised trivalent cations) slows the rotation of the bound Fl-AMP and leads to an increase in the fluorescence polarisation ratio of parallel to perpendicular light. Inhibition of the PDE reduces/inhibits this signal increase. […]

[2] = Particle size analysis of micronised material by laser diffraction (Malvern Mastersizer); assay type: physicochemical
Source text: For pharmaceutical compositions suitable and/or adapted for inhaled administration, it is preferred that the compound or salt of formula (I) is in a particle-size-reduced form, and more preferably the size-reduced form is obtained or obtainable by micronisation. Micronisation usually involves subjecting the compound/salt to collisional and abrasional forces in a fast-flowing circular or spiral/vortex-shaped airstream often including a cyclone component. The preferable particle size (e.g. D50 value) of the size-reduced (e.g. micronised) compound or salt is about 0.5 to about 10 microns, e.g. about 1 to about 5 microns (e.g. as measured using laser diffraction). For example, it is preferable for the compound or salt of formula (I to have a particle size defined by: a D10 of about 0.3 to about 3 microns (e.g. about 1 micron), and/or a D50 of about 1 to about 5 microns (e.g. about 2-5 or about 2-3 microns), and/or a D90 of about 2 to about 20 microns or about 3 to about 10 microns (e.g. about 5-8 or about 5-6 microns); for example as measured using laser diffraction. The laser diffraction measurement can use a dry method (suspension of compound/salt in airflow crosses laser beam) or a wet method [suspension of compound/salt in liquid dispersing medium, such as isooctane or (e.g. if compound soluble in isooctane) 0.1% Tween 80 in water, crosses laser beam]. With laser diffraction, particle size is preferably calculated using the Fraunhofer calculation; and/or preferably a Malvern Mastersizer or Sympatec apparatus is used for measurement.
Particle size analysis of Example 518 micronised material from Procedure 2, using laser diffraction measurement with Malvern Mastersizer longbed version, dispersing medium 0.1% Tween 80 in water, stir rate 1500 rpm, 3 mins sonification prior to final dispersion and analysis, 300 RF Reverse Fourier) lens, Fraunhofer calculation with Malvern software: • material from collection vessel: D10=0.97 microns, D50=3.86 microns, D90=12.64 microns. • material from inside walls of cyclone: D10=0.95 microns, D50=3.42 microns, D90=9.42 microns.

[3] = system: LPS-induced pulmonary neutrophilia and emetic episodes in the conscious ferret; assay: In Vivo Assay 4: Therapeutic Index of PDE4 inhibitors in the conscious ferret (LPS neutrophilia and emesis)
Experimental: PDE4 inhibitors are prepared for oral (p.o.) administration by dissolving in a fixed volume (1 ml) of acetone and then adding cremophor to 20% of the final volume. Acetone is evaporated by directing a flow of nitrogen gas onto the solution. Once the acetone is removed, the solution is made up to final volume with distilled water. LPS is dissolved in phosphate buffered saline.
Male ferrets (Mustela Pulorius Furo, weighing 1-2 kg) are transported and allowed to acclimatise for not less than 7 days. The diet comprises SDS diet C pelleted food given ad lib with Whiskers™ cat food given 3 times per week. The animals are supplied with pasteurised animal grade drinking water changed daily.
PDE4 inhibitors are administered orally (p.o.), using a dose volume of 1 ml/kg. Ferrets are fasted overnight but allowed free access to water. The animals are orally dosed with vehicle or PDE 4 inhibitor using a 15 cm dosing needle that is passed down the back of the throat into the oesophagus. After dosing, the animals are returned to holding cages fitted with perspex doors to allow observation, and given free access to water. The animals are constantly observed and any emetic episodes (retching and vomiting) or behavioural changes are recorded. The animals are allowed access to food 60-90 minutes after p.o. dosing.
Thirty minutes after oral dosing with compound or vehicle control, the ferrets are placed into sealed perspex containers and exposed to an aerosol of LPS (30 μg/ml) for 10 minutes. Aerosols of LPS are generated by a nebuliser (DeVilbiss, USA) and this is directed into the perspex exposure chamber. Following a 10-minute exposure period, the animals are returned to the holding cages and allowed free access to water, and at a later stage, food. General observation of the animals continues for a period of at least 2.5 hours post oral dosing. All emetic episodes and behavioural changes are recorded.
Six hours after LPS exposure the animals are killed by overdose of sodium pentobarbitone administered intraperitoneally. […] From this, the total number of neutrophils in the BAL sample is determined. […]

[4] = micronised material Procedure 2, material from collection vessel
[5] = micronised material Procedure 2, material from inside walls of cyclone

T1 sequence (Q07343 1-564 isoform Q07343-2): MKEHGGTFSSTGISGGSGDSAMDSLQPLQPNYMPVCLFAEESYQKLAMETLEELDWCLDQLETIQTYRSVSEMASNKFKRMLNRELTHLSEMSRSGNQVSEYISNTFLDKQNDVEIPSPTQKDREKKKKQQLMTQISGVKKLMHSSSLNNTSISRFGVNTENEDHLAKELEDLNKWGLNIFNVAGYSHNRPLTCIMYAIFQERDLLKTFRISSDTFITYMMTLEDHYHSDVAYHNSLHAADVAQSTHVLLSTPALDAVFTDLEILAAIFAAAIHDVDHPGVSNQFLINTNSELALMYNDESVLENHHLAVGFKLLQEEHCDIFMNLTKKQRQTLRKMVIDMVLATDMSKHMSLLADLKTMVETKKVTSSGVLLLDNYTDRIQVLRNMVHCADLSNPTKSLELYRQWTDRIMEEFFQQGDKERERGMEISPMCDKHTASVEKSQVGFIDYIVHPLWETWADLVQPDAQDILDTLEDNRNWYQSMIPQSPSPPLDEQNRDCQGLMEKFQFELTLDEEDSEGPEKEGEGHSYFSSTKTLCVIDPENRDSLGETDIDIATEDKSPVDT

| Compound | IC50 [1] [nM] | also measured |
| --- | --- | --- |
| CCn1ncc2c(NC3CCOCC3)c(C(=O)NCc3ccc(C)c(C)c3)cnc21 [Example 518, N-[(3,4-dimethylphenyl)methyl]-1-ethyl-4-(tetrahydro-2H-pyran-4-ylamino)-1H-pyrazolo[3,4-b]pyridine-5-carboxamide] | 0.1 to 6.31 | particle size D10 [2, 4]: 0.97 microns; particle size D50 [2, 4]: 3.86 microns; particle size D90 [2, 4]: 12.64 microns; particle size D10 [2, 5]: 0.95 microns; particle size D50 [2, 5]: 3.42 microns; particle size D90 [2, 5]: 9.42 microns |
| O=C(Nc1c(Cl)cncc1Cl)c1ccc(OC(F)F)c(OCC2CC2)c1 [roflumilast] |  | Therapeutic index (TI), ferret Assay 4 ([3]; D20 emesis / D50 neutrophilia, ferret p.o.): 1.02; D20 for emesis ([3]; p.o., ferret, dose giving 20% incidence of emesis): 0.5 mg/kg; D50 for neutrophilia ([3]; p.o., ferret, dose giving 50% inhibition of LPS-induced pulmonary neutrophilia): 0.49 mg/kg |
| CCn1ncc2c(NC3CCOCC3)c(C(=O)NCc3c(CO)ccc(Cl)c3Cl)cnc21 [Example 643, N-{[2,3-Dichloro-6-(hydroxymethyl)phenyl]methyl}-1-ethyl-4-(tetrahydro-2H-pyran-4-ylamino)-1H-pyrazolo[3,4-b]pyridine-5-carboxamide] | 0.1 to 6.31 |  |
| CCn1ncc2c(NC3CCOCC3)c(C(N)=O)cnc21 [Example 36, 1-Ethyl-4-(tetrahydro-2H-pyran-4-ylamino)-1H-pyrazolo[3,4-b]pyridine-5-carboxamide] | 12.6 to 100 |  |
| CCn1ncc2c(NC3CCC(=O)CC3)c(C(=O)NCc3ccccc3)cnc21 [Example 201, N-Benzyl-1-ethyl-4-[(4-oxocyclohexyl)amino]-1H-pyrazolo[3,4-b]pyridine-5-carboxamide] | 0.1 to 6.31 |  |
| CCn1ncc2c(NC3CCCCC3)c(C(=O)NCc3ccc(OC)cc3)cnc21 [Example 431, 4-(Cyclohexylamino)-1-ethyl-N-{[4-(methyloxy)phenyl]methyl}-1H-pyrazolo[3,4-b]pyridine-5-carboxamide] | 0.1 to 6.31 |  |
| CCOC(=O)c1cnc2c(cnn2CC)c1NC1CCCC1 [Example 1, Ethyl 4-(cyolopentylamino)-1-ethyl-1H-pyrazolo[3,4-b]pyridine-5-carboxylate] | 12.6 to 100 |  |
| CCn1ncc2c(NC3CCOCC3)c(C(=O)NCc3nccs3)cnc21 [Example 109, 1-Ethyl-4-(tetrahydro-2H-pyran-4-ylamino)-N-(1,3-thiazol-2-ylmethyl)-1H-pyrazolo[3,4-b]pyridine-5-carboxamide] | 12.6 to 100 |  |
| CCn1ncc2c(NC3CCCC3)c(C(=O)NCc3ccccc3)cnc21 [Example 39, N-Benzyl-4-(cyclopentylamino)-1-ethyl-1H-pyrazolo[3,4-b]pyridine-5-carboxamide] | 12.6 to 100 |  |
| CCn1ncc2c(NC3CCC(=NO)CC3)c(C(=O)NCc3ccc(C)cc3C)cnc21 (stereo not shown) [Example 680, N-[(2,4-Dimethylphenyl)methyl]-1-ethyl-4-{[4-(hydroxyimino)cyclohexyl]amino}-1H-pyrazolo[3,4-b]pyridine-5-carboxamide] | 0.1 to 6.31 |  |
| CCc1ccccc1CNC(=O)c1cnc2c(cnn2CC)c1NC1CCOCC1 [Example 619, 1-Ethyl-N-[(2-ethylphenyl)methyl]-4-(tetrahydro-2H-pyran-4-ylamino)-1H-pyrazolo[3,4-b]pyridine-5-carboxamide] | 0.1 to 6.31 |  |
| CCOC(=O)c1cnc2c(cnn2CC)c1NC1CCOCC1 [Example 3, Ethyl 1-ethyl-4-(tetrahydro-2H-pyran-4-ylamino)-1H-pyrazolo[3,4-b]pyridine-5-carboxylate] | 15.8 |  |
| CCn1ncc2c(NC3CCOCC3)c(C(=O)NCc3cccc(C)c3C)cnc21 [Example 625, N-[(2,3-Dimethylphenyl)methyl]-1-ethyl-4-(tetrahydro-2H-pyran-4-ylamino)-1H-pyrazolo[3,4-b]pyridine-5-carboxamide] | 0.1 to 6.31 |  |
| CCOC(=O)c1cnc2c(cnn2CC)c1NC1CCSC1 (racemic) [Example 11, Ethyl 1-ethyl-4-(tetrahydrothien-3-ylamino)-1H-pyrazolo[3,4-b]pyridine-5-carboxylate] | 39.8 |  |
